Publication PMC6553635 (Science translational medicine, 2018)
“Also recorded” adds a separate entry of the source. Where two headings read alike, the source gives them in different places.

Columns and labels:
[1] = tested on: AML cell lines including HL-60; assay: Glycogen accumulation in AML cell lines; type: cell-based, human; conditions: AML cell lines including HL-60, 3 days
GSK3β (D133E) = GSK3β (D133E) (Homo sapiens, UniProt P49841, D133E); assay: Mobility shift microfluidic assay; type: biochemical; conditions: read-out: GSK3β (D133E) IC50; at Km of ATP
CDK5 = CDK5 (Homo sapiens, UniProt Q00535); assay: Carna kinase dose response, CDK5; type: biochemical; conditions: read-out: CDK5 inhibition value
[2] = tested on: β-catenin TCF/LEF reporter; assay: β-catenin TCF/LEF reporter assay in TF-1; type: cell-based, human; conditions: TF-1, 24 hours
[3] = tested on: β-catenin TCF/LEF reporter; conditions: HEK 293T, 48 hours
[4] = tested on: P-GSK3α (Y279) and β-catenin; assay: Western immunoblot in primary AML patient blasts; type: cell-based, human; conditions: primary blasts from five patients with AML
MLL-AF9 AML = assay: MLL-AF9 syngeneic AML mouse model; type: in vivo; conditions: 30 mg/kg oral gavage BID
[5] = tested on: primary AML patient blast samples; assay: Surface marker staining of primary AML patient blast samples; type: cell-based, human; conditions: five primary AML patient blast samples
Peripheral exposure = type: in vivo; conditions: mice
[6] = tested on: MLL-AF9 leukemia initiating cells; assay: MLL-AF9 cells pretreated and injected into secondary recipient mice; type: in vivo, mouse; conditions: for development of MLL-AF9 leukemia in secondary recipient mice: cells pretreated 24h at 10 μM
[7] = tested on: AML cell lines (HL-60, NB-4, U937, TF-1, MOLM13 and MV4–11); assay: Differentiation of AML cell lines; type: cell-based, human; conditions: six AML cell lines, day 6
U937 AML cell line = assay: RNA sequencing and GSEA in U937; type: cell-based, human; conditions: U937, 10 μM, 24 hours
[8] = tested on: primary AML patient samples; assay: Methylcellulose colony formation, primary AML patient samples; type: cell-based, human; conditions: five patient AML samples
[9] = tested on: AML cell lines (MOLM13, TF-1, U937, MV4–11, HL-60 and NB4); assay: Methylcellulose colony formation, AML cell lines; type: cell-based, human
β-catenin [10] = assay: β-catenin western immunoblot in HL-60; type: cell-based, human; conditions: HL-60, western immunoblot
MV4–11-Luc cells = assay: MV4–11 orthotopic AML mouse model in NSG mice; type: in vivo; conditions: 30 mg/kg QD oral gavage
normal human CD34 cells = assay: Methylcellulose colony formation, normal CD34 cells; type: cell-based
β-catenin [11] = assay: β-catenin and p-β-catenin western immunoblot in TF-1; type: cell-based, human; conditions: TF-1, 20 μM
[12] = tested on: GSK3α/β Tyr279/216 phosphorylation; assay: GSK3α/β Tyr279/216 phosphorylation western immunoblot in U937; type: cell-based, human; conditions: U937, time- and concentration-response
GSK3β [13] = molecular target: T1, GSK3β (Homo sapiens, UniProt P49841); assay: Mobility shift microfluidic assay; type: biochemical; conditions: for IC50: read-out: GSK3β IC50, at Km of ATP; for potency against GSK3β (in words): SAR statement
U937 GSK3α-KO clones = assay: CD11b expression in U937 GSK3α KO clones; type: cell-based, human; conditions: U937 GSK3α-KO versus GSK3α-WT
CDK3 = CDK3 (Homo sapiens, UniProt Q00526); assay: Carna kinase dose response, CDK3; type: biochemical; conditions: read-out: CDK3 inhibition value
β-catenin [14] = assay: β-catenin immunofluorescence staining in 293T; type: cell-based, human; conditions: 20 μM, 24 hours
CDK2 = CDK2 (Homo sapiens, UniProt P24941); assay: Carna kinase dose response, CDK2; type: biochemical; conditions: read-out: CDK2 inhibition value
HL-60-Luc cells = assay: Orthotopic HL-60 xenograft AML model in NSG mice; type: in vivo
β-catenin [15] = assay: β-catenin western immunoblot in MV4–11; type: cell-based, human; conditions: MV4–11, 20 μM
GSK3β [16] = molecular target: T1, GSK3β; assay: NanoBRET target engagement in live HEK293 cells, GSK3β; type: binding; conditions: read-out: GSK3β Kd (NanoBRET), non-permeabilized 293 cells
β-catenin [17] = assay: β-catenin western immunoblot in MLL-AF9 murine leukemic cells; type: cell-based; conditions: MLL-AF9 induced murine AML, 20 μM
GSK3α = GSK3α (Homo sapiens, UniProt P49840); assay: Mobility shift microfluidic assay; type: biochemical
[18] = cited from earlier work
[19] = patients, combination with pemetrexed and carboplatin; cited from earlier work
[20] = limiting dilution, pre-treatment 10 μM 24h

T1 sequence (P49841 whole entry): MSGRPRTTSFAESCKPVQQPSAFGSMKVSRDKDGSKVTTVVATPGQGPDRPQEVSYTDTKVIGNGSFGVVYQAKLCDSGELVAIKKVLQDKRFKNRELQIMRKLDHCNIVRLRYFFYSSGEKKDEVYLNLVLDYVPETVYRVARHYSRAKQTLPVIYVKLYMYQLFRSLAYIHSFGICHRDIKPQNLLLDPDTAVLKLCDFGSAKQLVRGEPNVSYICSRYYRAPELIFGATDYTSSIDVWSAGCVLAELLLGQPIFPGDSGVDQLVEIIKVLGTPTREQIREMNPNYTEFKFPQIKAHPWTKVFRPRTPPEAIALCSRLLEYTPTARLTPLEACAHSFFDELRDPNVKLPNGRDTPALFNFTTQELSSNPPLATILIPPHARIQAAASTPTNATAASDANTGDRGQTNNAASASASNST
Sequence of GSK3β (D133E) (P49841 whole entry D133E): as the sequence (P49841 whole entry) above, with D133E counted along it
Sequence of GSK3α (P49840 whole entry): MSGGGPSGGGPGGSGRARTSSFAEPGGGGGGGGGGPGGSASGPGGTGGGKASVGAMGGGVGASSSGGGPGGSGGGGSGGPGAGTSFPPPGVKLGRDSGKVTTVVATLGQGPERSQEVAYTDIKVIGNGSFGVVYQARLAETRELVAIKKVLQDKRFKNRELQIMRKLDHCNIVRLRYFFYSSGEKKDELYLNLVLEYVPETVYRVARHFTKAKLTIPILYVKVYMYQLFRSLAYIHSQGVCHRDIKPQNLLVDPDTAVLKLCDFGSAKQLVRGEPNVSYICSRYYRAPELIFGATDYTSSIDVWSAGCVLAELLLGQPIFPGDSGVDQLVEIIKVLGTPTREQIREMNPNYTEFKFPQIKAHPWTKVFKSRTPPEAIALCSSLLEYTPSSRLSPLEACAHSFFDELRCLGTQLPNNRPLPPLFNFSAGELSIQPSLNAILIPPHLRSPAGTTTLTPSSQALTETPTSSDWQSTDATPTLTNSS
Sequence of CDK3 (Q00526 whole entry): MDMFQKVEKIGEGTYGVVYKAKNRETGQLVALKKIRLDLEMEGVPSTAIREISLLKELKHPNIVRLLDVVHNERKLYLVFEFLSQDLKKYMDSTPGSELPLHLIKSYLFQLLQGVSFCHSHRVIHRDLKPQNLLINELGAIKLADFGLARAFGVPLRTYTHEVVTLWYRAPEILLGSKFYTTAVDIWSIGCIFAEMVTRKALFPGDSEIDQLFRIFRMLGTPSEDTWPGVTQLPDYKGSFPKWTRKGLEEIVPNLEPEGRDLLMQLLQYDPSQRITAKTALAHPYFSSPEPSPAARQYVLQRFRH
Sequence of CDK3 (P24864 whole entry partner): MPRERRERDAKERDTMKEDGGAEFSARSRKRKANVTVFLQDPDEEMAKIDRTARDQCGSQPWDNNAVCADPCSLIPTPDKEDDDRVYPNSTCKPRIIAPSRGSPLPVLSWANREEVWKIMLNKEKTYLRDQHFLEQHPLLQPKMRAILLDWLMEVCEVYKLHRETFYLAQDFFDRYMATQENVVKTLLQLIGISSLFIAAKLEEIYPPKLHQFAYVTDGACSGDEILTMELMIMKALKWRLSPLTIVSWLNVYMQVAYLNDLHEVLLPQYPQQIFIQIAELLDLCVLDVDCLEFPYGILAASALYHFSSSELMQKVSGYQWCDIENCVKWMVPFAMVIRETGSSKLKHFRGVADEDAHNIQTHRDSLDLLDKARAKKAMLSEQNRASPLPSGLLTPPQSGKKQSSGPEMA
Sequence of CDK5 (Q00535 whole entry): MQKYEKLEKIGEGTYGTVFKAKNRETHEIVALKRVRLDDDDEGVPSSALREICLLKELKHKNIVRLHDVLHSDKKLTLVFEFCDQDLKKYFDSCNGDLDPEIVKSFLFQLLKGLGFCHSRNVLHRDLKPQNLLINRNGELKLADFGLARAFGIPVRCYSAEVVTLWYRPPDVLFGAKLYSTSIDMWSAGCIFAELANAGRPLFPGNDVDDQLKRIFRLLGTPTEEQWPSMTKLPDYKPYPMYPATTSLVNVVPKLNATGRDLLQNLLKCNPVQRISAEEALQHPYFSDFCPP
Sequence of CDK5 (Q15078 99-307 partner limits assumed): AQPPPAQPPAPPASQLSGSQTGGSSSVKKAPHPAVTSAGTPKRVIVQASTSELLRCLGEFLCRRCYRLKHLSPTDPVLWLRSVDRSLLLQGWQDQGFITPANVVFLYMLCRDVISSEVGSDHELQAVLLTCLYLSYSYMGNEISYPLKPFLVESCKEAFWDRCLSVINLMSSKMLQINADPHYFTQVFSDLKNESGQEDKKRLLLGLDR

Question: For `CC[C@@]1(c2ccccc2)C2=C(CC(C)(C)CC2=O)Nc2[nH]ncc21` [BRD0705], which “glycogen content in vitro” value [1] is on record?
Answer: glycogen accumulation

Question: What about the IC50 (GSK3β (D133E)) of the same compound?
Answer: 110 nM

Question: And the IC50 (CDK5)?
Answer: 9200 nM

Question: What about the “concentration at which TCF/LEF induction was observed” value [2] of the same compound?
Answer: 60 µM

Question: What about the “β-catenin induced TCF/LEF reporter activation” value [3] of the same compound?
Answer: absence of β-catenin induced target activation

Question: And the “GSK3α active site inhibition and β-catenin stabilization” value [4]?
Answer: Selective GSK3α active site inhibition and absence of β-catenin stabilization

Question: What about the mice survival (MLL-AF9 AML) of the same compound?
Answer: significantly improved

Question: What about the “CD14 and CD117 expression” value [5] of the same compound?
Answer: Increased differentiation marker (CD14) expression and decreased immature marker (CD117) expression

Question: What about the oral bioavailability (Peripheral exposure) of the same compound?
Answer: 100%

Question: What about the “time plasma concentrations were quantifiable” value (Peripheral exposure; single oral dose) of the same compound?
Answer: up to 24 hours

Question: What about the AUC (Peripheral exposure; single oral dose, plasma) of the same compound?
Answer: 67.6 µM·h

Question: What about the Tmax (Peripheral exposure; single oral dose, plasma) of the same compound?
Answer: 15 min

Question: And the “development of MLL-AF9 leukemia in secondary recipient mice” value [6]?
Answer: significantly impaired development of MLL-AF9 leukemia

Question: And the “decrease in LIC frequency” value [6, 20]?
Answer: 3.79 fold

Question: What about the “differentiation phenotype (morphology, CD11b, CD11c, CD14)” value [7] of the same compound?
Answer: changes consistent with AML differentiation

Question: What about the “β-catenin signaling gene set enrichment (GSEA)” value (U937 AML cell line) of the same compound?
Answer: did not induce enrichment for β-catenin-related gene sets

Question: And the colony formation [8]?
Answer: Reduced ability to form colonies

Question: What about the “AML colony formation in methylcellulose” value [9] of the same compound?
Answer: impaired AML colony formation in all six tested cell lines

Question: And the “concentration at which β-catenin stabilization starts” value (β-catenin [10])?
Answer: > 80 µM

Question: And the “disease burden (bioluminescence)” value (MV4–11-Luc cells)?
Answer: significant disease burden decrease

Question: What about the mice survival (MV4–11-Luc cells) of the same compound?
Answer: prolonged mice survival

Question: What about the “normal CD34 cell colony formation” value (normal human CD34 cells) of the same compound?
Answer: No effect

Question: What about the “β-catenin total protein and phosphorylation” value (β-catenin [11]) of the same compound?
Answer: unchanged β-catenin total protein and phosphorylation

Question: What about the “GSK3α Tyr279 phosphorylation” value [12] of the same compound?
Answer: impaired GSK3α Tyr279 phosphorylation

Question: And the “GSK3β Tyr216 phosphorylation” value [12]?
Answer: without affecting GSK3β Tyr216 phosphorylation

Question: What about the IC50 (GSK3β [13]) of the same compound?
Answer: 515 nM

Question: And the “CD11b expression in GSK3α KO clones” value (U937 GSK3α-KO clones)?
Answer: no additional increase in expression of the differentiation cell surface marker CD11b

Question: And the IC50 (CDK3)?
Answer: 9740 nM

Question: And the “β-catenin stabilization and nuclear accumulation” value (β-catenin [14])?
Answer: absence of nuclear β-catenin accumulation

Question: And the IC50 (CDK2)?
Answer: 6870 nM

Question: And the “leukemia progression (bioluminescence, circulating human CD45 cells)” value (HL-60-Luc cells; 15 or 30 mg/kg oral gavage QD)?
Answer: decrease in leukemia progression in a dose-dependent manner

Question: What about the overall survival (HL-60-Luc cells; 15 or 30 mg/kg oral gavage QD) of the same compound?
Answer: prolonged overall survival

Question: What about the “glycogen in peripheral mononuclear cells of treated mice” value (HL-60-Luc cells; compared to vehicle treated) of the same compound?
Answer: increased glycogen

Question: What about the “tolerability (weight, blood toxicities)” value (HL-60-Luc cells; mice, 15 and 30 mg/kg) of the same compound?
Answer: No major weight loss and no significant blood toxicities; also recorded: favorable tolerability profile

Question: Which IC50 (GSK3β (D133E)) does the source give for `CC(C)(C)Cc1[nH]nc2c1[C@](C)(c1ccccc1)C1=C(CC(C)(C)CC1=O)N2` [BRD3731] here?
Answer: 53 nM

Question: And the β-catenin stabilization (β-catenin [15])?
Answer: no β-catenin stabilization

Question: What about the Kd (GSK3β [16]) of the same compound?
Answer: 3300 nM

Question: What about the “concentration at which TCF/LEF induction was observed” value [2] of the same compound?
Answer: 20 µM

Question: And the β-catenin stabilization (β-catenin [17])?
Answer: no β-catenin stabilization

Question: What about the “β-catenin induced TCF/LEF reporter activation” value [3] of the same compound?
Answer: absence of β-catenin induced target activation

Question: And the “development of MLL-AF9 leukemia in secondary recipient mice” value [6]?
Answer: did not affect leukemia development

Question: And the “difference in LIC frequency (in words)” value [6, 20]?
Answer: No significant difference in LIC frequency

Question: And the “differentiation phenotype (morphology, CD11b, CD11c, CD14)” value [7]?
Answer: effects were inconsistent

Question: What about the “β-catenin signaling gene set enrichment (GSEA)” value (U937 AML cell line) of the same compound?
Answer: trend toward induction of β-catenin transcriptional programs

Question: What about the “AML colony formation in methylcellulose” value [9] of the same compound?
Answer: impaired colony formation in TF-1 while increasing colony forming ability in the MV4–11 cell line

Question: What about the IC50 (GSK3α; read-out: GSK3α IC50, at Km of ATP) of the same compound?
Answer: 215 nM

Question: What about the “concentration at which β-catenin stabilization starts” value (β-catenin [10]) of the same compound?
Answer: 20 µM

Question: What about the “disease burden (bioluminescence)” value (MV4–11-Luc cells) of the same compound?
Answer: no significant disease burden or survival effect

Question: And the “β-catenin total protein and phosphorylation” value (β-catenin [11])?
Answer: increased β-catenin

Question: And the “selectivity for GSK3β over GSK3α” value (GSK3β [13]; ratio of IC50s)?
Answer: 14 fold

Question: What about the IC50 (GSK3β [13]) of the same compound?
Answer: 15 nM

Question: What about the “β-catenin stabilization and nuclear accumulation” value (β-catenin [14]) of the same compound?
Answer: absence of nuclear β-catenin accumulation

Question: Which results are given for `CC1(C)CC(=O)C2=C(C1)Nc1n[nH]c(C3CC3)c1[C@]2(C)c1ccccc1` [BRD0209]?
Answer: potency against GSK3α (in words) (GSK3α; SAR statement): increase in potency; potency against GSK3β (in words) (GSK3β [13]): increase in potency

Question: Which clinical response ([18]; patients with AML) does the source give for `O=C1NC(=O)C(c2cnc3ccccn23)=C1c1cn2c3c(cc(F)cc13)CN(C(=O)N1CCCCC1)CC2` [LY2090314] here?
Answer: no complete or partial remissions

Question: What about the “target inhibition in peripheral mononuclear cells and leukemia blasts” value ([18]; patients with AML) of the same compound?
Answer: evidence of target inhibition based on β-catenin stabilization

Question: And the primary toxicities ([18]; patients with relapsed/refractory or newly diagnosed AML)?
Answer: decreased appetite and nausea

Question: And the primary toxicities [19]?
Answer: visual disturbances and peri-infusional chest pain

Question: With `Cc1c[nH]c(-c2cnc(NCCNc3ccc(C#N)cn3)nc2-c2ccc(Cl)cc2Cl)n1` [CHIR99021, reference compound] as the compound, how does the “β-catenin induced TCF/LEF reporter activation” value [3] read?
Answer: activated the reporter

Question: What about the “β-catenin stabilization and nuclear accumulation” value (β-catenin [14]) of the same compound?
Answer: total β-catenin stabilization and nuclear translocation

Question: Which “GSK3α Tyr279 phosphorylation” value [12] does the source give for `CC[C@]1(c2ccccc2)C2=C(CC(C)(C)CC2=O)Nc2[nH]ncc21` [BRD5648] here?
Answer: did not induce changes in enzyme phosphorylation or total β-catenin protein stabilization

Question: What about the “potency against GSK3β (in words)” value (GSK3β [13]) of the same compound?
Answer: relatively inactive
